Source: US4130559A, “Method for the preparation of 6-aminopenicillinic acid derivatives” (priority 1977, dated 1978)
Values after ≈ are worked out from the molar mass of the structure shown.

System: not listed separately
Experiment: in vivo
Conditions: mouse, iv

SMILES | MTD
CCCOc1cccc(C2(C(=O)NC3C(=O)N4C3SC(C)(C)C4C(=O)O)CCCC2)c1 (stereo not drawn) [Compound IX (Table 1), 1-(m-propoxyphenyl)Cyclopentyl-1-Penicillin] | 1500 mg/kg
CC(C)Oc1ccccc1C1(C(=O)NC2C(=O)N3C2SC(C)(C)C3C(=O)O)CCCC1 (stereo not drawn) [Compound V (Table 1)] | 1000 to 1500 mg/kg
CCCCOc1ccccc1C1(C(=O)NC2C(=O)N3C2SC(C)(C)C3C(=O)O)CCCC1 (stereo not drawn) [Compound VI (Table 1), 1-(o-Butoxyphenyl)Cyclopentyl-1-Pencillin] | 1000 mg/kg

Biological target: staphylococc penicillinase (Staphylococcus aureus, UniProt P00807)
Sequence (P00807 25-281): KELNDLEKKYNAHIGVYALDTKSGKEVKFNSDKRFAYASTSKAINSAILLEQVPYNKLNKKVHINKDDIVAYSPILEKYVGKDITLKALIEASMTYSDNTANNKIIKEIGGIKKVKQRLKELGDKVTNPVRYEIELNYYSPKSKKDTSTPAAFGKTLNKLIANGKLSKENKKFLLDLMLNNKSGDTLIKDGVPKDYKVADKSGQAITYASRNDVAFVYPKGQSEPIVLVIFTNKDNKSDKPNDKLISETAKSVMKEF
Experiment: Hydrolysis/inactivation by staphylococc penicillinase
Type: biochemical
Conditions: Table 5
Method: (§1) All compounds of this group were prepared in the form of sodium salts. Bactericidal activity, degree of hydrolysis with staphylococc penicillinase and acid resistance of the penicillins were determined.
The substitution of propoxy radical for iso-radical in this position is not accompanied by areduction of penicillin stability against penicillinase which is not observed in the orto- and para-positions. During the subsequent hours of inactivation the rate of hydrolysis of penicillins slightly increases. However, even when observed in dynamics, their stability against penicillianase still persists during 4-hour-inactivation.

SMILES | Quantity of inactivated units of compounds under the action of 1 unit of staphylococc penicillinase
CCCOc1cccc(C2(C(=O)NC3C(=O)N4C3SC(C)(C)C4C(=O)O)CCCC2)c1 (stereo not drawn) [Compound IX (Table 1), 1-(m-propoxyphenyl)Cyclopentyl-1-Penicillin] | 10.6 units
CC(C)Oc1ccccc1C1(C(=O)NC2C(=O)N3C2SC(C)(C)C3C(=O)O)CCCC1 (stereo not drawn) [Compound V (Table 1)] | 12.0 units
CCCCOc1ccccc1C1(C(=O)NC2C(=O)N3C2SC(C)(C)C3C(=O)O)CCCC1 (stereo not drawn) [Compound VI (Table 1), 1-(o-Butoxyphenyl)Cyclopentyl-1-Pencillin] | 16.6 units

System: Staph. aureus 209p (adapted to benzylpenicillin)
Experiment: Minimal bacteriostatic concentration
Type: cell-based
Conditions: Staphylococcus aureus, read-out: Minimal Bacteriostatic Concentration
Method: as §1

SMILES | MIC
CCCOc1cccc(C2(C(=O)NC3C(=O)N4C3SC(C)(C)C4C(=O)O)CCCC2)c1 (stereo not drawn) [Compound IX (Table 1), 1-(m-propoxyphenyl)Cyclopentyl-1-Penicillin] | > 500 µg/mL
CC(C)Oc1ccccc1C1(C(=O)NC2C(=O)N3C2SC(C)(C)C3C(=O)O)CCCC1 (stereo not drawn) [Compound V (Table 1)] | > 500 µg/mL
CCCCOc1ccccc1C1(C(=O)NC2C(=O)N3C2SC(C)(C)C3C(=O)O)CCCC1 (stereo not drawn) [Compound VI (Table 1), 1-(o-Butoxyphenyl)Cyclopentyl-1-Pencillin] | > 500 µg/mL

System: Prot.vulgaris
Experiment: Minimal bacteriostatic concentration
Type: cell-based
Conditions: Proteus vulgaris, sodium salts
Method: as §1

SMILES | MIC
CCCOc1cccc(C2(C(=O)NC3C(=O)N4C3SC(C)(C)C4C(=O)O)CCCC2)c1 (stereo not drawn) [Compound IX (Table 1), 1-(m-propoxyphenyl)Cyclopentyl-1-Penicillin] | 125 µg/mL
CC(C)Oc1ccccc1C1(C(=O)NC2C(=O)N3C2SC(C)(C)C3C(=O)O)CCCC1 (stereo not drawn) [Compound V (Table 1)] | 500 µg/mL
CCCCOc1ccccc1C1(C(=O)NC2C(=O)N3C2SC(C)(C)C3C(=O)O)CCCC1 (stereo not drawn) [Compound VI (Table 1), 1-(o-Butoxyphenyl)Cyclopentyl-1-Pencillin] | 500 µg/mL

System: Staph. aureus 209p
Experiment: Minimal bacteriostatic concentration
Type: cell-based
Conditions: Staphylococcus aureus, sodium salts
Method: as §1

SMILES | MIC
CCCOc1cccc(C2(C(=O)NC3C(=O)N4C3SC(C)(C)C4C(=O)O)CCCC2)c1 (stereo not drawn) [Compound IX (Table 1), 1-(m-propoxyphenyl)Cyclopentyl-1-Penicillin] | 0.39 µg/mL
CC(C)Oc1ccccc1C1(C(=O)NC2C(=O)N3C2SC(C)(C)C3C(=O)O)CCCC1 (stereo not drawn) [Compound V (Table 1)] | 0.39 µg/mL
CCCCOc1ccccc1C1(C(=O)NC2C(=O)N3C2SC(C)(C)C3C(=O)O)CCCC1 (stereo not drawn) [Compound VI (Table 1), 1-(o-Butoxyphenyl)Cyclopentyl-1-Pencillin] | 0.39 µg/mL

System: E.typhi
Experiment: Minimal bacteriostatic concentration
Type: cell-based
Conditions: read-out: Minimal Bacteriostatic Concentration
Method: as §1

SMILES | MIC
CCCOc1cccc(C2(C(=O)NC3C(=O)N4C3SC(C)(C)C4C(=O)O)CCCC2)c1 (stereo not drawn) [Compound IX (Table 1), 1-(m-propoxyphenyl)Cyclopentyl-1-Penicillin] | 15.6 µg/mL (≈ 34.9 µM)
CC(C)Oc1ccccc1C1(C(=O)NC2C(=O)N3C2SC(C)(C)C3C(=O)O)CCCC1 (stereo not drawn) [Compound V (Table 1)] | 125 µg/mL (≈ 280 µM)
CCCCOc1ccccc1C1(C(=O)NC2C(=O)N3C2SC(C)(C)C3C(=O)O)CCCC1 (stereo not drawn) [Compound VI (Table 1), 1-(o-Butoxyphenyl)Cyclopentyl-1-Pencillin] | 125 µg/mL (≈ 271 µM)

System: Sh.dysenteriae Flexneri
Experiment: Minimal bacteriostatic concentration
Type: cell-based
Conditions: Shigella dysenteriae, read-out: Minimal Bacteriostatic Concentration
Method: as §1

SMILES | MIC
CCCOc1cccc(C2(C(=O)NC3C(=O)N4C3SC(C)(C)C4C(=O)O)CCCC2)c1 (stereo not drawn) [Compound IX (Table 1), 1-(m-propoxyphenyl)Cyclopentyl-1-Penicillin] | 62.5 µg/mL (≈ 140 µM)
CC(C)Oc1ccccc1C1(C(=O)NC2C(=O)N3C2SC(C)(C)C3C(=O)O)CCCC1 (stereo not drawn) [Compound V (Table 1)] | 250 µg/mL (≈ 560 µM)
CCCCOc1ccccc1C1(C(=O)NC2C(=O)N3C2SC(C)(C)C3C(=O)O)CCCC1 (stereo not drawn) [Compound VI (Table 1), 1-(o-Butoxyphenyl)Cyclopentyl-1-Pencillin] | 250 µg/mL (≈ 543 µM)

System: Ps.aeruginosa
Experiment: Minimal bacteriostatic concentration
Type: cell-based
Conditions: Pseudomonas aeruginosa, sodium salts
Method: as §1

SMILES | MIC
CCCOc1cccc(C2(C(=O)NC3C(=O)N4C3SC(C)(C)C4C(=O)O)CCCC2)c1 (stereo not drawn) [Compound IX (Table 1), 1-(m-propoxyphenyl)Cyclopentyl-1-Penicillin] | > 500 µg/mL
CC(C)Oc1ccccc1C1(C(=O)NC2C(=O)N3C2SC(C)(C)C3C(=O)O)CCCC1 (stereo not drawn) [Compound V (Table 1)] | > 500 µg/mL
CCCCOc1ccccc1C1(C(=O)NC2C(=O)N3C2SC(C)(C)C3C(=O)O)CCCC1 (stereo not drawn) [Compound VI (Table 1), 1-(o-Butoxyphenyl)Cyclopentyl-1-Pencillin] | > 500 µg/mL

System: B.Subtitis ATCC6633
Experiment: Minimal bacteriostatic concentration
Type: cell-based
Conditions: sodium salts
Method: as §1

SMILES | MIC
CCCOc1cccc(C2(C(=O)NC3C(=O)N4C3SC(C)(C)C4C(=O)O)CCCC2)c1 (stereo not drawn) [Compound IX (Table 1), 1-(m-propoxyphenyl)Cyclopentyl-1-Penicillin] | 0.9 µg/mL
CC(C)Oc1ccccc1C1(C(=O)NC2C(=O)N3C2SC(C)(C)C3C(=O)O)CCCC1 (stereo not drawn) [Compound V (Table 1)] | 7.8 µg/mL
CCCCOc1ccccc1C1(C(=O)NC2C(=O)N3C2SC(C)(C)C3C(=O)O)CCCC1 (stereo not drawn) [Compound VI (Table 1), 1-(o-Butoxyphenyl)Cyclopentyl-1-Pencillin] | 15.6 µg/mL

System: Staph. albus
Experiment: Minimal bacteriostatic concentration
Type: cell-based
Conditions: sodium salts
Method: as §1

SMILES | MIC
CCCOc1cccc(C2(C(=O)NC3C(=O)N4C3SC(C)(C)C4C(=O)O)CCCC2)c1 (stereo not drawn) [Compound IX (Table 1), 1-(m-propoxyphenyl)Cyclopentyl-1-Penicillin] | 0.19 µg/mL
CC(C)Oc1ccccc1C1(C(=O)NC2C(=O)N3C2SC(C)(C)C3C(=O)O)CCCC1 (stereo not drawn) [Compound V (Table 1)] | 0.39 µg/mL
CCCCOc1ccccc1C1(C(=O)NC2C(=O)N3C2SC(C)(C)C3C(=O)O)CCCC1 (stereo not drawn) [Compound VI (Table 1), 1-(o-Butoxyphenyl)Cyclopentyl-1-Pencillin] | 0.19 µg/mL

System: E.coli O-55
Experiment: Minimal bacteriostatic concentration
Type: cell-based
Conditions: Escherichia coli, O55, read-out: Minimal Bacteriostatic Concentration
Method: as §1

SMILES | MIC
CCCOc1cccc(C2(C(=O)NC3C(=O)N4C3SC(C)(C)C4C(=O)O)CCCC2)c1 (stereo not drawn) [Compound IX (Table 1), 1-(m-propoxyphenyl)Cyclopentyl-1-Penicillin] | 250 µg/mL (≈ 560 µM)

Same assay, conditions: Escherichia coli, O55; E.coli O-55; sodium salts; read-out: Minimal Bacteriostatic Concentration

SMILES | MIC
CC(C)Oc1ccccc1C1(C(=O)NC2C(=O)N3C2SC(C)(C)C3C(=O)O)CCCC1 (stereo not drawn) [Compound V (Table 1)] | 500 µg/mL
CCCCOc1ccccc1C1(C(=O)NC2C(=O)N3C2SC(C)(C)C3C(=O)O)CCCC1 (stereo not drawn) [Compound VI (Table 1), 1-(o-Butoxyphenyl)Cyclopentyl-1-Pencillin] | 500 µg/mL

System: Strept. pyrogenes
Experiment: Minimal bacteriostatic concentration
Type: cell-based
Conditions: sodium salts
Method: as §1

SMILES | MIC
CCCOc1cccc(C2(C(=O)NC3C(=O)N4C3SC(C)(C)C4C(=O)O)CCCC2)c1 (stereo not drawn) [Compound IX (Table 1), 1-(m-propoxyphenyl)Cyclopentyl-1-Penicillin] | 0.39 µg/mL
CC(C)Oc1ccccc1C1(C(=O)NC2C(=O)N3C2SC(C)(C)C3C(=O)O)CCCC1 (stereo not drawn) [Compound V (Table 1)] | 0.78 µg/mL
CCCCOc1ccccc1C1(C(=O)NC2C(=O)N3C2SC(C)(C)C3C(=O)O)CCCC1 (stereo not drawn) [Compound VI (Table 1), 1-(o-Butoxyphenyl)Cyclopentyl-1-Pencillin] | 0.39 µg/mL

System: Vibrion Metschnicoff
Experiment: Minimal bacteriostatic concentration
Type: cell-based
Conditions: Vibrion Metschnicoff; sodium salts; read-out: Minimal Bacteriostatic Concentration
Method: as §1

SMILES | MIC
CCCOc1cccc(C2(C(=O)NC3C(=O)N4C3SC(C)(C)C4C(=O)O)CCCC2)c1 (stereo not drawn) [Compound IX (Table 1), 1-(m-propoxyphenyl)Cyclopentyl-1-Penicillin] | 3.9 µg/mL
CC(C)Oc1ccccc1C1(C(=O)NC2C(=O)N3C2SC(C)(C)C3C(=O)O)CCCC1 (stereo not drawn) [Compound V (Table 1)] | 0.9 µg/mL
CCCCOc1ccccc1C1(C(=O)NC2C(=O)N3C2SC(C)(C)C3C(=O)O)CCCC1 (stereo not drawn) [Compound VI (Table 1), 1-(o-Butoxyphenyl)Cyclopentyl-1-Pencillin] | 1.56 µg/mL

System: Myco smegmatis
Experiment: Minimal bacteriostatic concentration
Type: cell-based
Conditions: sodium salts
Method: as §1

SMILES | MIC
CCCOc1cccc(C2(C(=O)NC3C(=O)N4C3SC(C)(C)C4C(=O)O)CCCC2)c1 (stereo not drawn) [Compound IX (Table 1), 1-(m-propoxyphenyl)Cyclopentyl-1-Penicillin] | > 500 µg/mL
CC(C)Oc1ccccc1C1(C(=O)NC2C(=O)N3C2SC(C)(C)C3C(=O)O)CCCC1 (stereo not drawn) [Compound V (Table 1)] | > 500 µg/mL
CCCCOc1ccccc1C1(C(=O)NC2C(=O)N3C2SC(C)(C)C3C(=O)O)CCCC1 (stereo not drawn) [Compound VI (Table 1), 1-(o-Butoxyphenyl)Cyclopentyl-1-Pencillin] | > 500 µg/mL

System: not listed separately
Experiment: Acid resistance (half-life period)
Type: physicochemical
Conditions: acid ph 1.3; Temperature 37° C, pH 1.3; Table 1, cyclopentyl series; read-out: τ1/2 half-life period (acid resistance)
Method: as §1

SMILES | half-life
CCCOc1cccc(C2(C(=O)NC3C(=O)N4C3SC(C)(C)C4C(=O)O)CCCC2)c1 (stereo not drawn) [Compound IX (Table 1), 1-(m-propoxyphenyl)Cyclopentyl-1-Penicillin] | 222 min
CC(C)Oc1ccccc1C1(C(=O)NC2C(=O)N3C2SC(C)(C)C3C(=O)O)CCCC1 (stereo not drawn) [Compound V (Table 1)] | 10.3 min
CCCCOc1ccccc1C1(C(=O)NC2C(=O)N3C2SC(C)(C)C3C(=O)O)CCCC1 (stereo not drawn) [Compound VI (Table 1), 1-(o-Butoxyphenyl)Cyclopentyl-1-Pencillin] | 14.8 min
